{
  "source": "ChEMBL document CHEMBL1133817",
  "about": "“Discovery of novel, orally active dual NK1/NK2 antagonists” (Bioorg Med Chem Lett, 2001)",
  "key": {"[1]": {"assay": "Half life period at a dose of 1 uM/kg in dog was determined", "assay_type": "ADME, organism-based, Canis lupus familiaris", "conditions": "in vivo"}, "[2]": {"assay": "Plasma clearance in rat at a dose of 10 uM/kg in rat was determined", "assay_type": "ADME, organism-based", "conditions": "read-out: Clp"}, "[3]": {"assay": "Bioavailability by oral administration at a dose of 100 uM/kg in rat was determined", "assay_type": "ADME, organism-based", "conditions": "in vivo, read-out: Bioavailabiility"}, "[4]": {"assay": "Maximum concentration by oral administration at a dose of 10 umol/kg in dog was determined", "assay_type": "ADME, organism-based, Canis lupus familiaris", "parameters": "dose 10 umol/kg, route oral", "conditions": "in vivo"}, "[5]": {"assay": "Bioavailability by oral administration at a dose of 10 uM/kg in dog was determined", "assay_type": "ADME, organism-based, Canis lupus familiaris", "conditions": "in vivo, read-out: Bioavailabiility"}, "[6]": {"system": "Canis familiaris", "assay": "Area under curve by intravenous administration at a dose of 1 uM/kg in dog was determined", "assay_type": "ADME, organism-based, Canis lupus familiaris", "conditions": "in vivo"}, "[7]": {"target": "Substance-P receptor (Homo sapiens, UniProt P25103)", "sequence (P25103 whole entry)": "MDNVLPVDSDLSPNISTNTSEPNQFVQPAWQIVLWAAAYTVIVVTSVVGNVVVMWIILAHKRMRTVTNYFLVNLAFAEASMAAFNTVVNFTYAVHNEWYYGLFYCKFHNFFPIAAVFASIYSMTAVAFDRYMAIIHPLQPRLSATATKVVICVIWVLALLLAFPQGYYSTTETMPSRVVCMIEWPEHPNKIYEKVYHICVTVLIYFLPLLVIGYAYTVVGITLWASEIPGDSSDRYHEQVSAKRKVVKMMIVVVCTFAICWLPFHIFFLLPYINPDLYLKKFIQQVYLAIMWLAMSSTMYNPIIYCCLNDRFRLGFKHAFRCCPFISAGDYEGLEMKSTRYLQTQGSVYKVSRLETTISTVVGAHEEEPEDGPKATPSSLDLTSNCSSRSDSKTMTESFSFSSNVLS", "assay": "Binding affinity against human cloned Tachykinin receptor 1 expressed in MEL cells", "assay_type": "cell-based"}, "[8]": {"system": "Rattus norvegicus", "assay": "Area under curve by intravenous administration at a dose of 10 uM/kg in rat was determined", "assay_type": "ADME, organism-based", "conditions": "in vivo"}, "[9]": {"assay": "Volume distribution at a dose of 10 uM/kg in rat was determined", "assay_type": "ADME, organism-based", "conditions": "in vivo, read-out: Vdss"}, "[10]": {"assay": "Half-life period by oral administration at a dose of 10 uM/kg in dog was determined", "assay_type": "ADME, organism-based, Canis lupus familiaris", "conditions": "in vivo"}, "[11]": {"target": "T1, Neuromedin-K receptor (Homo sapiens, UniProt P29371)", "T1 sequence (P29371 whole entry)": "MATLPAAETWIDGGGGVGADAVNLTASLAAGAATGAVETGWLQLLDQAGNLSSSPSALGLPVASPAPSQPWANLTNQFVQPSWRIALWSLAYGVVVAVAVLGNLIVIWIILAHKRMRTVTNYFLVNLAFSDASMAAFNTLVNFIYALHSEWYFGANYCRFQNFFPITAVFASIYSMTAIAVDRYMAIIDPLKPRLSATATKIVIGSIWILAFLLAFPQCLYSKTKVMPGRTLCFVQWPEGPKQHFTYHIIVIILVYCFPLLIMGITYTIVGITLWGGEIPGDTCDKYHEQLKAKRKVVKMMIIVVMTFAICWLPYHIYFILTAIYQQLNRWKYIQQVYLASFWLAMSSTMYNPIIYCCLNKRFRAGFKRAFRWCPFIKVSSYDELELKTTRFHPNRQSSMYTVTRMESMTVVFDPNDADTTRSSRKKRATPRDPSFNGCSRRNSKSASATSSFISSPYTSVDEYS", "assay": "Binding affinity against human cloned Tachykinin receptor 3 expressed in MEL cells", "assay_type": "cell-based"}, "[12]": {"system": "Rattus norvegicus", "assay": "Area under curve by oral administration at a dose of 100 uM/kg in rat was determined", "assay_type": "ADME, organism-based", "conditions": "in vivo"}, "[13]": {"system": "Canis familiaris", "assay": "Area under curve by oral administration at a dose of 10 uM/kg in dog was determined", "assay_type": "ADME, organism-based, Canis lupus familiaris", "conditions": "in vivo"}, "[14]": {"assay": "Volume distribution at a dose of 1 uM/kg in dog was determined", "assay_type": "ADME, organism-based, Canis lupus familiaris", "conditions": "in vivo, read-out: Vdss"}, "[15]": {"assay": "Tmax by oral administration at a dose of 100 uM/kg in rat was determined", "assay_type": "ADME, organism-based", "conditions": "in vivo"}, "[16]": {"target": "T2, Substance-K receptor (Homo sapiens, UniProt P21452)", "T2 sequence (P21452 whole entry)": "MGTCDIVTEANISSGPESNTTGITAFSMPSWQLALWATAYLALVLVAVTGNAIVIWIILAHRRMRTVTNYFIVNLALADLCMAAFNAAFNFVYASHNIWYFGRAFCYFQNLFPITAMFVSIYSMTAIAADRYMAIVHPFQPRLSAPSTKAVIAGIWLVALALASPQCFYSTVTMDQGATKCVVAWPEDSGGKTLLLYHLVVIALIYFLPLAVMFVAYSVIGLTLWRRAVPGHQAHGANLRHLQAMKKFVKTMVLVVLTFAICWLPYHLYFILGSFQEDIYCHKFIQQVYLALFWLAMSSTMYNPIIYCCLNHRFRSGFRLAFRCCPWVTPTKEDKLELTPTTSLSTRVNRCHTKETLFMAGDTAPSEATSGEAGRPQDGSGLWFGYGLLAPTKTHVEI", "assay": "Binding affinity against human cloned Tachykinin receptor 2 expressed in MEL cells", "assay_type": "cell-based"}, "[17]": {"assay": "Half life period at a dose of 10 uM/kg in rat was determined", "assay_type": "ADME, organism-based", "conditions": "in vivo"}, "[18]": {"assay": "Maximum concentration by oral administration at a dose of 100 umol/kg in rat was determined", "assay_type": "ADME, organism-based", "parameters": "dose 100 umol/kg, route oral", "conditions": "in vivo"}, "[19]": {"assay": "Tmax by oral administration at a dose of 10 uM/kg in dog was determined", "assay_type": "ADME, organism-based, Canis lupus familiaris", "conditions": "in vivo"}},
  "data": [
    {"smiles": "CN(C[C@@H](CCN1CCC(c2ccccc2[S@+](C)[O-])CC1)c1ccc(Cl)c(Cl)c1)C(=O)c1cc(C#N)cc2ccccc12", "note": "(stereo in doubt)", "values": [
      {"measurement": "half-life", "setting": "[1]", "value": 228, "unit": "min"},
      {"measurement": "clearance", "setting": "[2]", "value": 32.6, "unit": "mL/min/kg"},
      {"measurement": "bioavailability", "setting": "[3]", "value": 9, "unit": "%"},
      {"measurement": "Cmax", "setting": "[4]", "value": 364, "unit": "ng/mL"},
      {"measurement": "bioavailability", "setting": "[5]", "value": 18, "unit": "%"},
      {"measurement": "AUC", "setting": "[6]", "value": 1100, "unit": "ng·h/mL"},
      {"measurement": "Ki", "setting": "[7]", "value": 0.1, "unit": "nM"},
      {"measurement": "AUC", "setting": "[8]", "value": 3200, "unit": "ng·h/mL"},
      {"measurement": "Vd", "setting": "[9]", "value": 3.7, "unit": "L/kg"},
      {"measurement": "half-life", "setting": "[10]", "value": 138, "unit": "min"},
      {"measurement": "Ki", "setting": "[11]", "value": 74, "unit": "nM"},
      {"measurement": "AUC", "setting": "[12]", "value": 3010, "unit": "ng·h/mL"},
      {"measurement": "AUC", "setting": "[13]", "value": 2000, "unit": "ng·h/mL"},
      {"measurement": "Vd", "setting": "[14]", "value": 2, "unit": "L/kg"},
      {"measurement": "Tmax", "setting": "[15]", "value": 2, "unit": "h"},
      {"measurement": "Ki", "setting": "[16]", "value": 0.6, "unit": "nM"},
      {"measurement": "half-life", "setting": "[17]", "value": 108, "unit": "min"},
      {"measurement": "Cmax", "setting": "[18]", "value": 421, "unit": "ng/mL"},
      {"measurement": "Tmax", "setting": "[19]", "value": 2, "unit": "h"}
    ]}
  ]
}
